Source: US11034648B2, “Cystobactamide derivatives” (priority 2017, dated 2021)
≈ marks a conversion by molar mass, not a printed value. Like-named read-outs stand apart in the source and are kept apart here.

How the values were obtained:
E. coli gyrase = target: T1, E. coli gyrase (Escherichia coli, UniProt P0AES4+P0AES6); experiment: E. coli gyrase supercoiling (sc) assay; type: biochemical; details: supercoiling assay kit, agarose gel quantification; read-out: Ec gyrase sc IC50
T1 construct: purchased Inspiralis
Description: The target activity on E. coli gyrase was assessed as described in Baumann et al., Angew Chem Int Ed Engl. 2014; 53(52):14605-9 using a commercial supercoiling (sc) assay kit from Inspiralis according to the manufacturer's instructions. The samples were separated on 0.8% (w/v) agarose gels and relaxed and supercoiled plasmid was visualized by ethidium bromide staining. Half-inhibitory concentrations (IC50) were calculated after image analysis and quantification (ImageJ) based on sigmoidal curve fitting (OriginPro).

S. aureus Newman = experiment: MIC, microbroth dilution susceptibility assay; type: cell-based; details: Staphylococcus aureus, NEWMAN, read-out: MIC S. aureus Newman
Procedure, shortened: (§1)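 Inoculum: 10^4-10^6 cfu/mL from overnight culture. Medium: cation-adjusted Müller-Hinton broth. Incubation: approx. 16 h, 30-37° C. Read-out: visual, MIC at no growth.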

E. coli WT DSM-1116 = experiment: MIC, microbroth dilution susceptibility assay; type: cell-based; details: Escherichia coli, no visual growth after approx. 16 h
Procedure, shortened: as §1

E. coli ΔtolC = experiment: microbe, parasite or virus in culture; type: cell-based; details: Escherichia coli, 16 h, read-out: MIC E. coli ΔtolC, small panel, Tables 1a/1b; no visual growth after approx. 16 h
Procedure, shortened: as §1

P. aeruginosa ΔmexAB = experiment: microbe, parasite or virus in culture; type: cell-based; details: Pseudomonas aeruginosa, 16 h, read-out: MIC P. aeruginosa ΔmexAB, efflux-deficient strain; small panel, Tables 1a/1b
Procedure, shortened: as §1

P. aeruginosa WT PA14 = experiment: MIC, microbroth dilution susceptibility assay; type: cell-based; details: Pseudomonas aeruginosa
Procedure, shortened: as §1

[1] = system: E. coli WT-III [marRΔ74bp]; type: cell-based; details: fluoroquinolone-resistant mutant; Table 2a
Description: Cystobactamid derivatives synthesized were tested against relevant Gram negative and positive bacteria of clinical interest. Experimental procedures used for the biological characterization of the compounds are the same as previously described in WO 2016/082934.
Bacterial strains used in susceptibility assays (minimum inhibitory concentration, MIC) were either part of our internal strain collection or purchased from the German Collection of Microorganisms and Cell Cultures (Deutsche Sammlung von Mikroorganismen und Zellkulturen, DSMZ) and the American Type Culture Collection (ATCC). The susceptible E. coli strain (WT) and fluoroquinolone-resistant mutants E. coli WT-3 and WT-III were kindly provided by Prof Dr. P. Heisig, Pharmaceutical Biology and Microbiology, University of Hamburg, Germany. The efflux-deficient strain P. aeruginosa ΔmexAB was kindly provided by Prof Dr. S. Häußler, Institute for Molecular Bacteriology, TWINCORE, Hannover, Germany. All compounds were prepared as DMSO stocks and MIC values were determined in standard microbroth dilution assays in 96-well MTPs as described in Baumann et al., Angew Chem Int Ed Engl. 2014; 53(52):14605-9. In brief, overnight cultures of bacteria were diluted in either tryptic soy broth (TSB: 1.7% peptone casein, 0.3% peptone soymeal, 0.25% glucose, 0.5% NaCl, 0.25% K2HPO4; pH 7.3; S. pneumoniae and E. faecalis) or cation-adjusted Müller-Hinton Broth (BBL™, BD; all other bacteria) and adjusted to 10^4-10^6 cfu/mL. Bacteria were grown in the presence of the derivatives in serial dilution for approx. 16 h at 30-37° C. MIC values were determined and were defined as the antibiotic concentration at which no visual growth of bacteria was observed.

[2] = system: E. coli WT-3 [gyrA(S83L,D87G)]; experiment: microbe, parasite or virus in culture; type: cell-based; details: Escherichia coli, read-out: MIC E. coli WT-3 [gyrA(S83L,D87G)]
Procedure, shortened: as §1

E. coli WT = experiment: MIC, microbroth dilution susceptibility assay; type: cell-based; details: Escherichia coli; large panel, Table 2a
Procedure, shortened: as §1

A. baumannii DSM-30008 = experiment: MIC, microbroth dilution susceptibility assay; type: cell-based; details: Acinetobacter baumannii, DSM30008; large panel, Table 2a
Procedure, shortened: as §1

S. epidermidis DSM-28765 = experiment: MIC, microbroth dilution susceptibility assay; type: cell-based; details: Staphylococcus epidermidis, DSM28765; large panel, Table 2a
Procedure, shortened: as §1

C. freundii DSM-30039 = experiment: MIC, microbroth dilution susceptibility assay; type: cell-based; details: Citrobacter freundii, DSM30039; large panel, Table 2a
Procedure, shortened: as §1

P. mirabilis DSM-2140 = experiment: MIC, microbroth dilution susceptibility assay; type: cell-based; details: Proteus mirabilis, DSM2140; large panel, Table 2a
Procedure, shortened: as §1

P. aeruginosa DSM-24600 = experiment: MIC, microbroth dilution susceptibility assay; type: cell-based; details: Pseudomonas aeruginosa, DSM24600; large panel, Table 2a
Procedure, shortened: as §1

K. pneumoniae DSM-30104 = experiment: MIC, microbroth dilution susceptibility assay; type: cell-based; details: Klebsiella pneumoniae, DSM30104; large panel, Table 2a
Procedure, shortened: as §1

S. marcescens DSM-30121 = experiment: MIC, microbroth dilution susceptibility assay; type: cell-based; details: Serratia marcescens, DSM30121; large panel, Table 2a
Procedure, shortened: as §1

P. aeruginosa DSM-46316 = experiment: MIC, microbroth dilution susceptibility assay; type: cell-based; details: Pseudomonas aeruginosa, DSM46316; large panel, Table 2a
Procedure, shortened: as §1

E. aerogenes DSM-30053 = experiment: MIC, microbroth dilution susceptibility assay; type: cell-based; details: Klebsiella aerogenes, DSM30053; large panel, Table 2a
Procedure, shortened: as §1

S. aureus ATCC-29213 = experiment: MIC, microbroth dilution susceptibility assay; type: cell-based; details: Staphylococcus aureus, ATCC29213; large panel, Table 2a
Procedure, shortened: as §1

E. cloacae DSM-30054 = experiment: MIC, microbroth dilution susceptibility assay; type: cell-based; details: Enterobacter cloacae, DSM30054; large panel, Table 2a
Procedure, shortened: as §1

P. vulgaris DSM-2140 = experiment: MIC, microbroth dilution susceptibility assay; type: cell-based; details: Proteus vulgaris, DSM2140; large panel, Table 2a
Procedure, shortened: as §1

S. pneumoniae DSM-20566 = experiment: MIC, microbroth dilution susceptibility assay; type: cell-based; details: Streptococcus pneumoniae, DSM20566; large panel, Table 2a; TSB
Procedure, shortened: as §1

E. faecalis ATCC-29212 = experiment: MIC, microbroth dilution susceptibility assay; type: cell-based; details: Enterococcus faecalis, ATCC29212; large panel, Table 2a; TSB
Procedure, shortened: as §1

[3] = DSM1116, 16 h, read-out: MIC E. coli WT DSM-1116, small panel, Tables 1a/1b
[4] = DSM1116, small panel, Tables 1a/1b, read-out: MIC E. coli WT DSM-1116
[5] = PA14, read-out: MIC P. aeruginosa WT PA14
[6] = PA14, small panel, Tables 1a/1b, read-out: MIC P. aeruginosa WT PA14

SMILES | IC50 (E. coli gyrase) [nM] | MIC (S. aureus Newman; small panel, Tables 1a/1b) [µg/mL] | MIC (E. coli WT DSM-1116; [3]) [µg/mL] | MIC (E. coli WT DSM-1116; [4]) [µg/mL] | MIC (E. coli ΔtolC) [µg/mL] | MIC (P. aeruginosa ΔmexAB) [µg/mL] | MIC (S. aureus Newman) [µg/mL] | MIC (P. aeruginosa WT PA14; [5]) [µg/mL] | MIC E. coli WT-III [marRΔ74bp] [1] [µg/mL] | MIC [2] [µg/mL] | MIC (E. coli WT) [µg/mL] | MIC (A. baumannii DSM-30008) [µg/mL] | MIC (P. aeruginosa WT PA14; [6]) [µg/mL] | MIC (S. epidermidis DSM-28765) [µg/mL] | MIC (C. freundii DSM-30039) [µg/mL] | MIC (K. pneumoniae DSM-30104) [µg/mL] | MIC (S. marcescens DSM-30121) [µg/mL] | MIC (E. aerogenes DSM-30053) [µg/mL] | MIC (S. aureus ATCC-29213) [µg/mL] | MIC (P. vulgaris DSM-2140) [µg/mL] | further results
C/C(=C\c1ccc(C#N)cc1)C(=O)Nc1ccc(C(=O)N[C@@H](CC(N)=O)C(=O)Nc2ccc(C(=O)Nc3ccc(C(=O)Nc4ccc(C(=O)O)c(O)c4OC(C)C)c(O)c3OC(C)C)cc2)cc1 [Compound 124, (S,E)-4-(4-(4-(4-Amino-2-(4-(3-(4-cyanophenyl)-2-methylacrylamido)benzamido)-4-oxobutanamido)benzamido)-2-hydroxy-3-isopropoxybenzamido)-2-hydroxy-3-isopropoxybenzoic acid] | 200 | 0.06 (≈ 0.0648 µM) | 0.125 (≈ 0.135 µM) | 0.5 (≈ 0.54 µM) | – | – | – | – | – | – | – | – | – | – | – | – | – | – | – | – | –
CC(C)Oc1c(NC(=O)c2ccc(NC(=O)[C@H](CC(N)=O)NC(=O)c3ccc(NC(=O)c4ccc(C5(C(F)(F)F)N=N5)cc4)cc3)cc2)ccc(C(=O)Nc2ccc(C(=O)O)cc2)c1O [Compound 37, (S)-4-(4-(4-(4-amino-4-oxo-2-(4-(4-(3-(trifluoromethyl)-3H-diazirin-3-yl)benzamido)benzamido)butanamido)benzamido)-2-hydroxy-3-isopropoxybenzamido)benzoic acid] | 16000 | – | 16 (≈ 17.9 µM) | – | 8 (≈ 8.94 µM) | > 64 | > 64 | > 64 | – | – | – | – | – | – | – | – | – | – | – | – | –
C/C(=C\c1ccc(O)cc1)C(=O)Nc1ccc(C(=O)N[C@@H](CC(N)=O)C(=O)Nc2ccc(C(=O)Nc3ccc(C(=O)Nc4ccc(C(=O)O)cc4)c(O)c3OC(C)C)cc2)cc1 [Compound 53, (S,E)-4-(4-(4-(4-amino-2-(4-(3-(4-hydroxyphenyl)-2-methylacrylamido)benzamido)-4-oxobutanamido)benzamido)-2-hydroxy-3-isopropoxybenzamido)benzoic acid] | – | 0.25 (≈ 0.297 µM) | – | 0.25 (≈ 0.297 µM) | 0.06 (≈ 0.0712 µM) | 0.25 (≈ 0.297 µM) | – | – | 0.06 (≈ 0.0712 µM) | 0.06 (≈ 0.0712 µM) | 0.13 (≈ 0.154 µM) | 0.25 (≈ 0.297 µM) | 1 (≈ 1.19 µM) | 0.25 (≈ 0.297 µM) | 0.13 (≈ 0.154 µM) | > 64 | 64 (≈ 75.9 µM) | 1 (≈ 1.19 µM) | 0.5 (≈ 0.593 µM) | 0.13 (≈ 0.154 µM) | MIC (P. mirabilis DSM-2140): 2 µg/mL (≈ 2.37 µM); MIC (P. aeruginosa DSM-24600): > 64 µg/mL; MIC (P. aeruginosa DSM-46316): 2 µg/mL (≈ 2.37 µM); MIC (E. cloacae DSM-30054): > 64 µg/mL; MIC (S. pneumoniae DSM-20566): 2 µg/mL (≈ 2.37 µM); MIC (E. faecalis ATCC-29212): 0.5 µg/mL (≈ 0.593 µM)
CC(C)Oc1c(NC(=O)c2ccc(NC(=O)[C@H](CC(N)=O)NC(=O)c3ccc(NC(=O)c4ccc([N+](=O)[O-])cc4)cc3)cc2)ccc(C(=O)Nc2ccc(C(=O)O)cc2)c1O [Compound 28, (S)-4-(4-(4-(4-amino-2-(4-(4-nitrobenzamido)benzamido)-4-oxobutanamido)benzamido)-2-hydroxy-3-isopropoxybenzamido)benzoic acid] | 110 | 0.5 (≈ 0.601 µM) | – | 0.13 (≈ 0.156 µM) | 0.06 (≈ 0.0721 µM) | 1 (≈ 1.2 µM) | – | – | 0.06 (≈ 0.0721 µM) | 0.25 (≈ 0.301 µM) | 0.06 (≈ 0.0721 µM) | 0.25 (≈ 0.301 µM) | > 64 | 1 (≈ 1.2 µM) | 0.06 (≈ 0.0721 µM) | > 64 | > 64 | > 64 | 0.5 (≈ 0.601 µM) | 0.13 (≈ 0.156 µM) | MIC (P. mirabilis DSM-2140): > 64 µg/mL; MIC (P. aeruginosa DSM-24600): > 64 µg/mL; MIC (P. aeruginosa DSM-46316): > 64 µg/mL; MIC (E. cloacae DSM-30054): 0.25 µg/mL (≈ 0.301 µM); MIC (S. pneumoniae DSM-20566): 0.25 µg/mL (≈ 0.301 µM); MIC (E. faecalis ATCC-29212): 2 µg/mL (≈ 2.4 µM)
CC(C)Oc1c(N)ccc(C(=O)Nc2ccc(C(=O)N[C@@H](CC(N)=O)C(=O)Nc3ccc(C(=O)Nc4ccc(C(=O)Nc5ccc(C(=O)O)cc5)c(O)c4OC(C)C)cc3)cc2)c1O [Compound 49, (S)-4-(4-(4-(4-amino-2-(4-(4-amino-2-hydroxy-3-isopropoxybenzamido)benzamido)-4-oxobutanamido)benzamido)-2-hydroxy-3-isopropoxybenzamido)benzoic acid] | – | > 64 | – | 2 (≈ 2.28 µM) | 0.01 to 0.06 (≈ 0.0114 to 0.0685 µM) | 2 to 4 (≈ 2.28 to 4.57 µM) | – | – | – | – | 2 (≈ 2.28 µM) | 32 (≈ 36.5 µM) | > 64 | – | 2 (≈ 2.28 µM) | > 64 | > 64 | > 64 | > 64 | 4 (≈ 4.57 µM) | –
CC(C)Oc1c(-n2cc(-c3ccc(NC(=O)[C@H](CC(N)=O)NC(=O)c4ccc(NC(=O)c5ccc(C#N)cc5)cc4)cc3)nn2)ccc(C(=O)Nc2ccc(C(=O)O)cc2)c1O [Compound 119, 4-(4-(4-(4-(4-amino-2-(4-(4-cyanobenzamido)benzamido)-4-oxobutanamido)phenyl)-1H-1,2,3-triazol-1-yl)-2-hydroxy-3-isopropoxybenzamido)benzoic acid] | 1500 | – | 0.06 (≈ 0.0718 µM) | – | < 0.03 | 2 (≈ 2.39 µM) | < 0.03 | 8 (≈ 9.57 µM) | – | – | – | – | – | – | – | – | – | – | – | – | –
